This is an account of results in patent US20040116440A1, “Bombesin receptor antagonists” (priority 2000, published 2004).

For test [1], the target named is T1, cloned human GRP-preferring receptor (BB2) (Homo sapiens, UniProt P30550).
T1 construct: expressed in transfected cells; membranes prepared from the cells
The test is described as follows: BB2 binding assay, [125I][Tyr4]bombesin competition on membranes of CHO-K1 cells. The note with it: 90 minutes. An excerpt:
(§1) The compounds of the invention have been evaluated in receptor binding assays which measure their affinity in a cloned human NMB-preferring receptor (BB1) assay and in a cloned human GRP-preferring receptor (BB2) assay. […] Accordingly they may be useful for the diagnosis, prevention, or treatment of male sexual dysfunction in humans and animals, female sexual dysfunction in humans and animals, anxiety and panic disorders, social phobia, depression, psychoses, sleeping disorders, memory impairment, pulmonary hypertension, lung repair and lung development disorders, cancer including prostate cancer and pancreatic cancer, hepatic porphyria, gastrointestinal secretory disturbances, gastrointestinal disorders including colitis, Crohn's disease and inflammatory bowel disease, emesis, anorexia, pain, seasonal affective disorders, feeding disorders, or pruritus.
(§2) In the following experiments, measurement of BB1 and BB2 binding was as follows. CHO-K1 cells stably expressing cloned human NMB (for (BB1 assay) and GRP receptors (for BB2 assay) were routinely grown in Ham's F12 culture medium supplemented with 10% foetal calf serum and 2 mM glutamine. For binding experiments, cells were harvested by trypsinization, and stored frozen at −70° C. in Ham's F12 culture medium containing 5% DMSO until required. On the day of use, cells were thawed rapidly, diluted with an excess of culture medium, and centrifuged for 5 minutes at 2000 g. Cells were resuspended in 50 mM Tris-HCl assay buffer (pH 7.4 at 21° C., containing 0.02% BSA, […] bacitracin, […] chymostatin, […] leupeptin, and 2 mM phosphoramidon), counted, and polytronned (setting 5, 10 sec) before centrifuging for 10 minutes at 28,000 g. The final pellet was resuspended in assay buffer to a final cell concentration of 1.5×10^5/mL. For binding assays, 200 μL aliquots of membranes were incubated with [^125I][Tyr^4]bombesin (<0.1 nM) in the presence and absence of test compounds (final assay volume 250 μL) for 60 minutes and 90 minutes for NMB and GRP receptors, respectively. Nonspecific binding was defined by 1 μM bombesin. Assays were terminated by rapid filtration under vacuum onto Whatman GF/C filters presoaked in 0.2% PEI for >2 hours, and washed 50 mM Tris-HCl (pH 6.9 at 21° C.; 6×1 mL). Radioactivity bound was determined using a gamma counter.
All competition data was analysed using nonlinear regression utilising iterative curve-plolting procedures in Prism® (GraphPad Software Inc., San Diego, USA). IC50 values were corrected to Ki values using the Cheng-Prusoff equation (Cheng Y., Prusoff W. H., Biochem. Pharmacol. 22: 3099-3108, 1973).

For test [2], the target named is T2, cloned human NMB-preferring receptor (BB1) (Homo sapiens, UniProt P28336).
T2 construct: expressed in transfected cells; membranes prepared from the cells
T2 sequence (P28336 whole entry): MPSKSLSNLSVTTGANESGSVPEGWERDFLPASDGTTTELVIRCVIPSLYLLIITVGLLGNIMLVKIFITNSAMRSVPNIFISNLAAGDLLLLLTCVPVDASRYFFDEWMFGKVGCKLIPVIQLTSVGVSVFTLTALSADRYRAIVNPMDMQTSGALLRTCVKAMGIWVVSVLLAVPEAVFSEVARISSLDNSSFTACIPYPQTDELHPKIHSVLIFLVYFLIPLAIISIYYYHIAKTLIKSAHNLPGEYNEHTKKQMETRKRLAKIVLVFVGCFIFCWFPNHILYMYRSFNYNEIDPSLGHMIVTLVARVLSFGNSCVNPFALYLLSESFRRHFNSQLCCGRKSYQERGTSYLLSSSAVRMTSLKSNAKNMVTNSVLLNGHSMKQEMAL
Briefly: BB1 binding assay, [125I][Tyr4]bombesin competition on membranes of CHO-K1 cells. The note with it: 60 minutes.
Source text: as §1
as §2, with “For binding assays, 200 μL aliquots of membranes were incubated with [^125I][Tyr^4]bombesin (<0.1 nM) in the presence and absence of test compounds (final assay volume 250 μL) for 60 minutes and 90 minutes for NMB and GRP receptors, respectively. Nonspecific binding was defined by 1 μM bombesin. Assays were terminated by rapid filtration under vacuum onto Whatman GF/C filters presoaked in 0.2% PEI for >2 hours, and washed 50 mM Tris-HCl (pH 6.9 at 21° C.; 6×1 mL).” left out
All competition data was analysed using nonlinear regression utilising iterative curve-plolting procedures in Prism® (GraphPad Software Inc., San Diego, USA). […]

[3] abbreviates: Table 6, N-terminal sulfonamide derivatives.
Where [4] appears, read: Table 2, N-acyl derivatives of Intermediate VIa.

T1 sequence (P30550 whole entry): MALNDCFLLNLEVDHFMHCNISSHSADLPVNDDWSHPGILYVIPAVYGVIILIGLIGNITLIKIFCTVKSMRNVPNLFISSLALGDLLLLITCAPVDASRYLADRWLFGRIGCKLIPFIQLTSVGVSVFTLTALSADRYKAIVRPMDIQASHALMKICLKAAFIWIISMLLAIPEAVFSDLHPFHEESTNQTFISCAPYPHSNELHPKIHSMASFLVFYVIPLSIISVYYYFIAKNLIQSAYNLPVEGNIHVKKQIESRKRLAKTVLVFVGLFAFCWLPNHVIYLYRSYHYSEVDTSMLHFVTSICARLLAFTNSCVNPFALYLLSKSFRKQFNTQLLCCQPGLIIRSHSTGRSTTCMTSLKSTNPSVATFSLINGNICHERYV

For orientation: IC50 means the concentration that inhibits the measured activity by half. A low value points to inhibition by little substance. Consider `C[C@@](Cc1c[nH]c2ccccc12)(NS(=O)(=O)c1cc(C(F)(F)F)ccc1Cl)C(=O)NCC1(c2ccccn2)CCCCC1` [Example 135, (S)-2-(2-Chloro-5-trifluoromethyl-benzenesulfonylamino)-3-(1H-indol-3-yl)-2-methyl-N-(1-pyridin-2-yl-cyclohexylmethyl)-propionamide], for which the IC50 was greater than 10000 nM in test [1] (setting [3]) and 627 nM in test [2] (setting [3]). The compound “Dimethylamino-N {(S)-2-(1H-indol-3-yl)-1-methyl-1-[(1-pyridin-2-yl-cyclohexyl-methyl)-carbamoyl]-ethyl}-benzamide [Example 11]” came in with a half-maximal inhibitory concentration (IC50) in test [2] (setting [4]) of 2520 nM.

For `C[C@@](Cc1c[nH]c2ccccc12)(NS(=O)(=O)c1ccc(C(F)(F)F)cc1[N+](=O)[O-])C(=O)NCC1(c2ccccn2)CCCCC1` [Example 136, (S)-3-(1H-Indol-3-yl)-2-methyl-2-(2-nitro-4-trifluoromethyl-benzenesulfonylamino)-N-(1-pyridin-2-yl-cyclohexylmethyl)-propionamide], the IC50 in test [1] (setting [3]) was greater than 10000 nM; in test [2] (setting [3]), 758 nM. Compound `Cc1ccccc1CC(=O)N[C@@](C)(Cc1c[nH]c2ccccc12)C(=O)NCC1(c2ccccn2)CCCCC1` [Example 20, (S)-3-(1H-Indol-3-yl)-2-methyl-N-(1-pyridin-2-yl-cyclohexylmethyl)-2-(2-o-tolyl-ethanoylamino)-propionamide] came in with a half-maximal inhibitory concentration (IC50) in test [1] (setting [4]) greater than 10000 nM. Consider `C[C@@](Cc1c[nH]c2ccccc12)(NS(=O)(=O)c1cc(Cl)sc1Cl)C(=O)NCC1(c2ccccn2)CCCCC1` [Example 126, (S)-2-(2,5-Dichloro-thiophene-3-sulfonylamino)-3-(1H-indol-3-yl)-2-methyl-N-(1-pyridin-2-yl-cyclohexylmethyl)-propionamide], for which the IC50 in test [1] (setting [3]) is greater than 10000 nM.
